Experimental findings from patent US9969726B2, “Metabotropic glutamate receptor negative allosteric modulators (NAMS) and uses thereof” (Sanford-Burnham Medical Research Institute, priority 2014, dated 2018) are described below.

One experiment deals with rat mGlu3 receptor (Rattus norvegicus (Rat), UniProt P31422). In words: mGlu3 in vitro GIRK thallium flux assay. The class given is cell-based. The following applies: NAM; 2.5 min compound incubation; EC80 glutamate; HEK-293 GIRK cells. An outline of the steps:
(§1)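 Cells expressing rat mGlu2 or mGlu3 with GIRK, plated overnight at 37 °C. Test compounds (0.3% DMSO, 10-point 1:3 series) preincubated 2.5 or 60 min, then thallium buffer plus EC80 glutamate added. Fluorescence slope 5–15 s after addition, normalised to vehicle and maximal agonist, fitted by four-parameter logistic.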

For a further experiment, the target named is rat mGlu2 receptor (Rattus norvegicus (Rat), UniProt P31421). Kind of experiment: mGlu2 in vitro GIRK thallium flux assay. The experiment is classed as cell-based. Conditions: NAM, EC80 glutamate, HEK-293 GIRK cells. The method in brief:
as §1

The mark [1] stands for this setting: 2.5 min compound incubation, read-out: mGlu2 EC50 (μM) (2.5 min).
Setting [2] is: read-out: mGlu2 EC50 (μM) (60 min), 60 min compound incubation.
The mark [3] stands for this setting: mGlu2 EC50 (μM) (60 min), 60 min compound incubation.

Like-named read-outs stand apart in the source and are kept apart here.

Chain of rat mGlu2 receptor (P31421 19-872): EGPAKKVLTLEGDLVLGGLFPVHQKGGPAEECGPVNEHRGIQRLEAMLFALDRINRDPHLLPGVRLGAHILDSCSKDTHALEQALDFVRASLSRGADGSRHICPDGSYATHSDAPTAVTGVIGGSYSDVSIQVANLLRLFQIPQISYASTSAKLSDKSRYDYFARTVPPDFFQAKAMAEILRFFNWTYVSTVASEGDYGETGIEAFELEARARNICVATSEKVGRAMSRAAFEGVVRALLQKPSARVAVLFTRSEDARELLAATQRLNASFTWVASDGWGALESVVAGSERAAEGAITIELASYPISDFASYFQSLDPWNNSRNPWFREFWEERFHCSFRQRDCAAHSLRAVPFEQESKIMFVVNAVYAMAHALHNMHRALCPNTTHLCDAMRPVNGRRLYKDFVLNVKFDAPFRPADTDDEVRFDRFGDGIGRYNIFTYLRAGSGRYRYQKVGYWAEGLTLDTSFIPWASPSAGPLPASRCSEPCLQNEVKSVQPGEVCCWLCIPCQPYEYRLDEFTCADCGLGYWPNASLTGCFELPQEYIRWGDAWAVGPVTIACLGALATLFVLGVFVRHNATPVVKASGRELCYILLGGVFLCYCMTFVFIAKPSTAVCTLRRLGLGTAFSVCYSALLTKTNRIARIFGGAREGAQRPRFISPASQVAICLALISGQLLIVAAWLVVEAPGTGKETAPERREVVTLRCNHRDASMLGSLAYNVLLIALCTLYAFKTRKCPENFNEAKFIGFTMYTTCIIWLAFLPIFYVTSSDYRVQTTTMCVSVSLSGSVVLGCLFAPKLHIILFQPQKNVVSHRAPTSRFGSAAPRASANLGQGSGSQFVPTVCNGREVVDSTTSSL
Chain of rat mGlu3 receptor (P31422 23-879): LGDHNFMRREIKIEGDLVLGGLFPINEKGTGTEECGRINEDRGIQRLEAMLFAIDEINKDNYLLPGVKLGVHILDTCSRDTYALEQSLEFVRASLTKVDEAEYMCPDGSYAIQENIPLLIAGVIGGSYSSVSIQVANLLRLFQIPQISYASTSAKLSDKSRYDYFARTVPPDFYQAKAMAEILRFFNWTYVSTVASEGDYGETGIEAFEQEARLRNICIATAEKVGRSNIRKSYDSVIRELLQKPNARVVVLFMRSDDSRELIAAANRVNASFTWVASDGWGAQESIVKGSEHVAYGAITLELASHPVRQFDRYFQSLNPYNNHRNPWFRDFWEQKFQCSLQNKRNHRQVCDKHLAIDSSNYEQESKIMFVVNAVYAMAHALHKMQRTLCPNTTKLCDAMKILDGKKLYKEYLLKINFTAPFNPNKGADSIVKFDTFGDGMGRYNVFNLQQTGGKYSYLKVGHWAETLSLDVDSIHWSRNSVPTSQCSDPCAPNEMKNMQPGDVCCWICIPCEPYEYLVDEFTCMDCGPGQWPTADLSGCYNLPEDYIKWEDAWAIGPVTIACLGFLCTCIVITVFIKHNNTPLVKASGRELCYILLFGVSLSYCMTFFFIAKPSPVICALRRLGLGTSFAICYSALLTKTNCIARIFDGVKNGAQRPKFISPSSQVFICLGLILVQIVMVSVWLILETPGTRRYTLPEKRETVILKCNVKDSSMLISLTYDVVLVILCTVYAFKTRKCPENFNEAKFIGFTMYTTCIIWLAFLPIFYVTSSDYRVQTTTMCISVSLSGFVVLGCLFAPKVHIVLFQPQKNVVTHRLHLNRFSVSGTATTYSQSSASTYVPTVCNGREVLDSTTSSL

Turning to `O=C(O)c1cc(-c2cccc(-c3nccc(-c4ccoc4)n3)c2)ccc1F` [Example 118, 4-Fluoro-3′-(4-(furan-3-yl)pyrimidin-2-yl)biphenyl-3-carboxylic Acid], the concentration for a half-maximal effect (EC50) was 1.38 µM on rat mGlu3 receptor, 0.26 µM at rat mGlu2 receptor (setting [1]) and 1.01 µM on rat mGlu2 receptor (setting [2]).
Consider `Cc1cc(-c2ccoc2)nc(-c2cccc(-c3cccc(C(=O)O)c3)c2)n1` [Example 119, 3′-(4-(Furan-3-yl)-6-methylpyrimidin-2-yl)biphenyl-3-carboxylic Acid], for which the EC50 on rat mGlu3 receptor came to 0.35 µM; on rat mGlu2 receptor (setting [1]), 0.05 µM; on rat mGlu2 receptor (setting [2]), 0.06 µM.
On the same counts, the results for `COc1ccc(-c2cc(C(F)(F)F)nc(-c3cccc(-c4ccc(F)c(C(=O)O)c4)c3)n2)cn1` [Example 120, 4-Fluoro-3′-(4-(6-methoxypyridin-3-yl)-6-(trifluoromethyl)pyrimidin-2-yl)-[1,1′-biphenyl]-3-carboxylic Acid] are 1.41 µM, 1.43 µM and 0.35 µM.
For `Cc1cc(-c2ccoc2)nc(-c2cccc(-c3cc(F)cc(C(=O)O)c3)c2)n1` [Example 121, 5-Fluoro-3′-(4-(furan-3-yl)-6-methylpyrimidin-2-yl)-[1,1′-biphenyl]-3-carboxylic Acid], the EC50 was determined as 2.21 µM at rat mGlu3 receptor, 0.35 µM at rat mGlu2 receptor (setting [1]) and 0.31 µM on rat mGlu2 receptor (setting [3]).
For the compound `FC(F)(F)c1ccc(-c2cc(C(F)(F)F)nc(-c3cccc(-c4cccc(-c5nn[nH]n5)c4)c3)n2)cn1` [Example 123, 2-(3′-(2H-Tetrazol-5-yl)biphenyl-3-yl)-4-(trifluoromethyl)-6-(6-(trifluoromethyl)pyridin-3-yl)pyrimidine], the 50% effective concentration (EC50) came to 2.39 µM on rat mGlu3 receptor, 0.75 µM at rat mGlu2 receptor (setting [1]) and 0.43 µM on rat mGlu2 receptor (setting [2]).
In the case of `NS(=O)(=O)c1cccc(-c2cn(-c3nc(-c4ccc(C(F)(F)F)nc4)cc(C(F)(F)F)n3)cn2)c1` [Example 125, 3-(1-(4-(Trifluoromethyl)-6-(6-(trifluoromethyl)pyridin-3-yl)pyrimidin-2-yl)-1H-imidazol-4-yl)benzenesulfonamide], the results for the EC50 on rat mGlu3 receptor, at rat mGlu2 receptor (setting [1]) and on rat mGlu2 receptor (setting [2]) were greater than 30 µM, greater than 10 µM and greater than 10 µM, respectively.
For `Nc1cccc(-c2cn(-c3nc(-c4ccc(C(F)(F)F)nc4)cc(C(F)(F)F)n3)cn2)c1` [Example 126, 3-(1-(4-(Trifluoromethyl)-6-(6-(trifluoromethyl)pyridin-3-yl)pyrimidin-2-yl)-1H-imidazol-4-yl)aniline], the EC50 on rat mGlu3 receptor was greater than 30 µM; at rat mGlu2 receptor (setting [1]) it was greater than 30 µM; on rat mGlu2 receptor (setting [2]), greater than 10 µM.
Regarding `O=C(O)c1cc(-c2cccc(Nc3nc(-c4ccco4)cc(C(F)(F)F)n3)c2)ccc1F` [Example 127, 4-Fluoro-3′-(4-(furan-2-yl)-6-(trifluoromethyl)pyrimidin-2-ylamino)biphenyl-3-carboxylic Acid], the EC50 was 3.9 µM at rat mGlu3 receptor, 5.33 µM at rat mGlu2 receptor (setting [1]) and greater than 10 µM at rat mGlu2 receptor (setting [2]).
As for `O=C(O)c1cc(-c2cccc(Oc3nc(-c4ccco4)cc(C(F)(F)F)n3)c2)ccc1F` [Example 128, 4-Fluoro-3′-(4-(furan-2-yl)-6-(trifluoromethyl)pyrimidin-2-yloxy)biphenyl-3-carboxylic Acid], the half-maximal effective concentration (EC50) at rat mGlu3 receptor, at rat mGlu2 receptor (setting [1]) and on rat mGlu2 receptor (setting [2]) was greater than 30 µM each time.
Take `O=C(O)c1cc(-c2cccc(Sc3nc(-c4ccco4)cc(C(F)(F)F)n3)c2)ccc1F` [Example 129, 4-Fluoro-3′-(4-(furan-2-yl)-6-(trifluoromethyl)pyrimidin-2-ylthio)biphenyl-3-carboxylic Acid]: the 50% effective concentration (EC50) at rat mGlu3 receptor was greater than 10 µM; at rat mGlu2 receptor (setting [1]) it was greater than 10 µM; on rat mGlu2 receptor (setting [2]), 3.25 µM.
As to `Fc1ccc(C#Cc2cccc(-c3nc(-c4ccc(C(F)(F)F)nc4)cc(C(F)(F)F)n3)c2)cc1` [Example 130, 2-(3-((4-Fluorophenyl)ethynyl)phenyl)-4-(trifluoromethyl)-6-(6-(trifluoromethyl)pyridin-3-yl)pyrimidine], the EC50 was greater than 30 µM at rat mGlu3 receptor, greater than 30 µM on rat mGlu2 receptor (setting [1]) and greater than 10 µM on rat mGlu2 receptor (setting [2]).
With `O=C(NO)c1cc(-c2cccc(-c3nc(-c4ccoc4)cc(C(F)(F)F)n3)c2)ccc1F` [Example 131, 4-Fluoro-3′-(4-(furan-3-yl)-6-(trifluoromethyl)pyrimidin-2-yl)-N-hydroxy-[1,1′-biphenyl]-3-carboxamide], the EC50 is greater than 10 µM on rat mGlu3 receptor, greater than 10 µM on rat mGlu2 receptor (setting [1]) and 3.36 µM on rat mGlu2 receptor (setting [2]).
`CONC(=O)c1cc(-c2cccc(-c3nc(-c4ccoc4)cc(C(F)(F)F)n3)c2)ccc1F` [Example 132, 4-Fluoro-3′-(4-(furan-3-yl)-6-(trifluoromethyl)pyrimidin-2-yl)-N-methoxy-[1,1′-biphenyl]-3-carboxamide]: the concentration for a half-maximal effect (EC50) at rat mGlu3 receptor is 5.26 µM; at rat mGlu2 receptor (setting [1]), greater than 10 µM; at rat mGlu2 receptor (setting [2]), 7.1 µM.
Consider `Cc1cc2c(cc1C(F)(F)F)NC(=O)CC(c1cccc(Oc3ccccc3)c1)=N2` [Example 143, 7-Methyl-4-(3-phenoxyphenyl)-8-(trifluoromethyl)-1H-benzo[b][1, 4]diazepin-2 (3H)-one], for which the half-maximal effective concentration (EC50) turned out to be 2.62 µM on rat mGlu3 receptor, 2.21 µM on rat mGlu2 receptor (setting [1]) and 1.19 µM on rat mGlu2 receptor (setting [3]).
With `Cc1cc2c(cc1C(F)(F)F)NC(=O)CC(c1cccc(OCc3ccccc3)c1)=N2` [Example 144, 4-(3-(Benzyloxy)phenyl)-7-methyl-8-(trifluoromethyl)-1H-benzo[b][1,4]diazepin-2(3H)-one], the 50% effective concentration (EC50) is 2.93 µM at rat mGlu3 receptor, greater than 10 µM at rat mGlu2 receptor (setting [1]) and 2.36 µM on rat mGlu2 receptor (setting [3]).
Consider `Cc1cc2c(cc1C(F)(F)F)NC(=O)CC(c1cccc(Oc3cccc(Br)c3)c1)=N2` [Example 145, 4-(3-(3-Bromophenoxy)phenyl)-7-methyl-8-(trifluoromethyl)-1H-benzo[b][1,4]diazepin-2(3H)-one], for which the half-maximal effective concentration (EC50) on rat mGlu3 receptor, at rat mGlu2 receptor (setting [1]) and on rat mGlu2 receptor (setting [2]) was greater than 10 µM each time.
On to `Cc1cc2c(cc1C(F)(F)F)NC(=O)CC(c1cccc(Oc3cc(F)cc(F)c3)c1)=N2` [Example 146, 4-(3-(3,5-difluorophenoxy)phenyl)-7-methyl-8-(trifluoromethyl)-1H-benzo[b][1,4]diazepin-2(3H)-one], for which the concentration for a half-maximal effect (EC50) at rat mGlu3 receptor, at rat mGlu2 receptor (setting [1]) and at rat mGlu2 receptor (setting [2]) was greater than 10 µM each time.
As for `Cc1cc2c(cc1C(F)(F)F)NC(=O)CC(c1cccc(Oc3ccccn3)c1)=N2` [Example 150, 7-Methyl-4-(3-(pyridin-2-yloxy)phenyl)-8-(trifluoromethyl)-1H-benzo[b][1,4]diazepin-2(3H)-one], the EC50 on rat mGlu3 receptor was determined as 1.52 µM; on rat mGlu2 receptor (setting [1]) it was 2.79 µM.
Regarding `Cc1cc(-c2cccc(C3CC(=O)Nc4cc(NC(=O)Oc5ccccc5)ccc4N3)c2)cc(C)n1` (stereo not shown) [Example 163, Phenyl (2-(3-(2,6-dimethylpyridin-4-yl)phenyl)-4-oxo-2,3,4,5-tetrahydro-1H-benzo[b][1,4]diazepin-7-yl)carbamate], the 50% effective concentration (EC50) on rat mGlu3 receptor, on rat mGlu2 receptor (setting [1]) and at rat mGlu2 receptor (setting [2]) was greater than 10 µM throughout.
As for `N#Cc1cc(C2=Nc3ccc(F)cc3NC(=O)C2)ccn1` [Example 180, 4-(8-Fluoro-2-oxo-2,3-dihydro-1H-benzo[b][1,4]diazepin-4-yl)picolinonitrile], the EC50 on rat mGlu3 receptor came to 0.86 µM; at rat mGlu2 receptor (setting [1]), 0.88 µM; at rat mGlu2 receptor (setting [2]), 0.31 µM.
`N#Cc1cc(C2=Nc3ccc(Cl)cc3NC(=O)C2)ccn1` [Example 181, 4-(8-Chloro-2-oxo-2,3-dihydro-1H-benzo[b][1,4]diazepin-4-yl)picolinonitrile]: the EC50 on rat mGlu3 receptor and on rat mGlu2 receptor (setting [1]) was greater than 10 µM throughout.
In the case of `N#Cc1cc(C2=Nc3ccc(I)cc3NC(=O)C2)ccn1` [Example 183, 4-(8-Iodo-2-oxo-2,3-dihydro-1H-benzo[b][1,4]diazepin-4-yl)picolinonitrile], the figures for the EC50 at rat mGlu3 receptor, at rat mGlu2 receptor (setting [1]) and on rat mGlu2 receptor (setting [2]) were 0.07 µM, 0.11 µM and 0.03 µM, respectively.
In the case of `N#Cc1cc(C2=Nc3ccc(C#Cc4ccc(F)cc4)cc3NC(=O)C2)ccn1` [Example 185, 4-(8-((4-Fluorophenyl)ethynyl)-2-oxo-2,3-dihydro-1H-benzo[b][1,4]diazepin-4-yl)picolinonitrile], the half-maximal effective concentration (EC50) on rat mGlu3 receptor was 1.45 µM; on rat mGlu2 receptor (setting [1]), greater than 10 µM.
As for `O=C1CC(c2ccnc(Cl)c2)=Nc2ccc(-c3ccc(Cl)cc3)cc2N1` [Example 186, 8-(4-Chlorophenyl)-4-(2-chloropyridin-4-yl)-1,3-dihydro-2H-benzo[b][1,4]diazepin-2-one], the EC50 on rat mGlu3 receptor amounted to 1.36 µM; at rat mGlu2 receptor (setting [1]) it was 2.42 µM; on rat mGlu2 receptor (setting [2]), 1.01 µM.
Regarding `O=C1CC(c2ccnc(Cl)c2)=Nc2ccc(-c3ccccc3F)cc2N1` [Example 187, 4-(2-Chloropyridin-4-yl)-8-(2-fluorophenyl)-1,3-dihydro-2H-benzo[b][1,4]diazepin-2-one], the results for the EC50 on rat mGlu3 receptor and at rat mGlu2 receptor (setting [1]) were 0.71 µM and 0.98 µM, respectively.
For the compound `O=C1CC(c2ccnc(Cl)c2)=Nc2ccc(-c3cccnc3F)cc2N1` [Example 188, 4-(2-Chloropyridin-4-yl)-8-(2-fluoropyridin-3-yl)-1,3-dihydro-2H-benzo[b][1,4]diazepin-2-one], the EC50 at rat mGlu3 receptor was 1.7 µM; at rat mGlu2 receptor (setting [1]), greater than 10 µM.
Consider `O=C1CC(c2ccnc(Cl)c2)=Nc2ccc(C(F)(F)F)cc2N1` [Example 189, 4-(2-Chloropyridin-4-yl)-8-(trifluoromethyl)-1,3-dihydro-2H-benzo[b][1,4]diazepin-2-one], for which the figures for the concentration for a half-maximal effect (EC50) on rat mGlu3 receptor, on rat mGlu2 receptor (setting [1]) and on rat mGlu2 receptor (setting [2]) were 0.28 µM, 0.29 µM and 0.08 µM, respectively.
